Source: article PMC10096064, “Naphth[1,2-d]imidazoles Bioactive from β-Lapachone: Fluorescent Probes and Cytotoxic Agents to Cancer Cells” (Molecules, 2023)
“Also recorded” adds a separate entry of the source. Read-outs that look alike come from different tables or passages of the source. Marks after values point to notes of the source that are not given here.

Assays:
[1] = cited from earlier work
[2] = Fluorescence emission spectrum and Stokes shift; assay type: physicochemical; settings: for fluorescence emission intensity / λemis (emission wavelength): excitation at 345 nm, 20 μM; for λemis (emission wavelength): solvent per compound: IM1, IM3, IM4, IM5 CH2Cl2, IM2 DMSO, IM6 CH3OH, IM7 hexane, DAPI H2O; for ΔST (Stokes shift): difference between absorption and emission wavelengths, solvent per compound as in Table 1
Procedure: The stock solutions were diluted to a concentration of 20 µM, and readings used the excitation wavelength of 345 nm for all compounds. […]

[3] = test system: HCT-116; assay: MTT cytotoxicity assay, human colorectal carcinoma HCT-116; assay type: cell-based; settings: for IC50: Homo sapiens, HCT-116, 72 h exposure, MTT, 95% confidence interval in brackets; for SI HCT-116 (selectivity index): ratio IC50 L929 / IC50 HCT-116
Procedure: (§1) The cytotoxic activity of the naphth[1,2-d]imidazoles IM1–IM7 was assessed through colorimetric MTT assay. The ability of these compounds to inhibit cell growth against human glioblastoma (SNB-19), human colorectal carcinoma (HCT-116), and human promyelocytic leukemia (HL-60) cell lines was evaluated. The IC50 was determined for those compounds, returning a percentage inhibition of cell growth above 75% in at least two tested cell lines. […] Doxorubicin was used as the positive control, and cytotoxic activities were expressed as IC50 for all the naphth[1,2-d]imidazoles in Table 2.
(§2) Brain tumor (SNB-19), human colorectal carcinoma (HCT-116), and human promyelocytic leukemia (HL-60) cells were obtained from the National Cancer Institute (NCI) (Bethesda, MD, USA). The L929 cells (mouse fibroblast L cells NCTC clone 929) were purchased from the American Type Culture Collection (Manassas, VA, USA). The cells were grown on RPMI 1640 medium supplemented with 10% fetal bovine serum and 1% antibiotics (penicillin/streptomycin) at 37 °C with 5% CO2.
(§3) Cytotoxic potential of the naphth[1,2-d]imidazoles IM1–IM7 was assessed after 72 h of exposure to the tumor cell lines of human SNB-19, HCT-116, HL-60, and normal cell line L929. Cells were plated in 96-well plates (0.7 × 10^5 cells/well for SNB-19, 0.3 × 10^6 cells/well for HCT-116, and 0.3 × 10^6 cells/well for HL-60). Compounds were dissolved with DMSO at concentrations in the 0.078–10 μg.mL^−1 range. Doxorubicin (0.001–1.10 μM) was used as the positive control, and negative control groups received the same amount of vehicle (DMSO). The cell viability was determined by the reduction of the yellow dye 3-(4,5-dimethyl-2-thiazol)-2,5-diphenyl-2H-tetrazolium bromide (MTT) to a blue formazan product. At the end of the incubation time (69 h), the plates were centrifuged, and the medium was replaced with fresh medium (200 μL) containing 0.5 mg/mL of MTT. Three hours later, the MTT formazan product was dissolved in DMSO (150 μL), and the absorbance was measured using a multi-plate reader (Spectra Count, Packard, ON, Canada). The drug effect was quantified as the percentage of control absorbance of the reduced dye at 550 nm. All experiments were performed in three independent assays, and the half maximal inhibitory concentration (IC50) and their 95% confidence intervals were achieved by nonlinear regression.

[4] = test system: HL-60; assay: MTT cytotoxicity assay, human promyelocytic leukemia HL-60; assay type: cell-based; settings: for IC50: Homo sapiens, HL-60, 72 h exposure, MTT, 95% confidence interval in brackets; for SI HL-60 (selectivity index): ratio IC50 L929 / IC50 HL-60
Procedure: as §1, §2, §3

[5] = test system: SNB-19; assay: MTT cytotoxicity assay, human glioblastoma SNB-19; assay type: cell-based; settings: for IC50: Homo sapiens, SNB-19, 72 h exposure, MTT, 95% confidence interval in brackets; for SI SNB-19 (selectivity index): ratio IC50 L929 / IC50 SNB-19
Procedure: as §1, §2, §3

[6] = test system: L929; assay: MTT cytotoxicity assay, nontumor murine fibroblast L929; assay type: cell-based; settings: Mus musculus, 72 h exposure
Procedure: as §1, §2, §3

[7] = UV-vis absorption spectra and molar absorptivity coefficient; assay type: physicochemical; settings: 20 μM
Procedure: A stock solution in dichloromethane (CH2Cl2) of each compound was prepared at a concentration of 4000 µM. From the stock solution, solutions were prepared at a concentration of 20 µM of each compound in four different solvents: hexane, CH2Cl2, dimethyl sulfoxide (DMSO), and methanol (CH3OH). Then, measurement in the range of 190 to 800 nm was performed, with the wavelengths of maximum absorption (λmax) of the compounds in the different solvents shown in Table S1 and Figure S8.
The molar absorptivity coefficient (εAbs) was determined using an equation applied by Lambert–Beer (εAbs = A/LxC, where A—maximum absorbance; L—the optical path of the cuvette used (1 cm); and C—concentration of the analyzed sample in M).

[8] = design: method as in PMID 25995830, PMID 20460521; settings: drawback limiting clinical applications; cited from earlier work
[9] = solvent per compound: IM1, IM3, IM4, IM5 CH2Cl2, IM2 DMSO, IM6 CH3OH, IM7 hexane

Compound | λmax ([1]; H2O, ref Farahat et al. (2017) [32]) | λabs ([1]; general characteristic of DAPI stated in text, ref not given) [nm] | fluorescence emission intensity [2] | λemis (emission wavelength) [2] [nm] | IC50 [3] [µM] | SI HCT-116 (selectivity index) [3] | IC50 [4] [µM] | SI HL-60 (selectivity index) [4] | IC50 [5] [µM] | SI SNB-19 (selectivity index) [5] | IC50 [6] [µM] | ΔST (Stokes shift) [2] [nm] | melting point [°C] | εAbs (molar absorptivity coefficient) [7, 9] | λmax [7, 9] [nm] | εAbs (molar absorptivity coefficient) [7] [M⁻¹ cm⁻¹] | cell growth inhibition / cytotoxicity (in words) ([3]; HCT-116, MTT, IC50 not calculated) | cell growth inhibition / cytotoxicity (in words) ([4]; HL-60, MTT, IC50 not calculated) | cell growth inhibition / cytotoxicity (in words) ([5]; SNB-19, MTT, IC50 not calculated) | water solubility [8]
N=C(N)c1ccc(-c2cc3ccc(C(=N)N)cc3[nH]2)cc1 [DAPI, 4′,6-diamidino-2-phenylindole, reference compound] | 343 ^d nm | 340 | 1.13 × 10^5 au | 452 | – | – | – | – | – | – | – | – | – | – | – | – | – | – | – | –
COc1cccc2c1C(=O)c1c(O)c3c(c(O)c1C2=O)C[C@@](O)(C(=O)CO)C[C@@H]3O[C@H]1C[C@H](N)[C@H](O)[C@H](C)O1 [Doxorubicin, reference compound] | – | – | – | – | 0.2 | 15.80 | 0.04 | 79.00 | 2.21 | 1.43 | 3.16 | – | – | – | – | – | – | – | – | –
CC1(C)CCc2c(c3ccccc3c3nc[nH]c23)O1 [IM1, 4,5-dihydro-6,6-dimethyl-6H-2-pyran[b-4,3]naphth[1,2-d]imidazole] | – | – | 6.90 × 10^4 au | 366 | 62.1 | 3.00 | 24.2 | 7.68 | 46.4 | 4.00 | 186 | 50 | 255 to 259 | 0.61 10^4 M^−1cm^−1 | 316 | – | – | – | – | –
CC1(C)CCc2c(c3ccccc3c3nc(-c4ccccc4)[nH]c23)O1 [IM2, 4,5-dihydro-6,6-dimethyl-6H-2-(phenyl)-pyran[b-4,3]naphth[1,2-d]imidazole] | – | – | 2.49 × 10^6 au | 402 | 21.7 | 4.83 | 29.9 | 3.50 | 27 | 3.89 | 105 | 60 | 278 to 279 | 2.43 10^4 M^−1cm^−1 | 342 | 24300 | – | – | – | –
CC1(C)CCc2c(c3ccccc3c3nc(-c4cccc5ccccc45)[nH]c23)O1 [IM3, 4,5-dihydro-6,6-dimethyl-6H-2-(naphthalenyl)-pyran[b-4,3]naphth[1,2-d]imidazole] | – | – | 1.41 × 10^6 au | 457 | – | – | – | – | – | – | – | 103 | – | 1.57 10^4 M^−1cm^−1 | 354 | 15700 | low growth inhibition; also recorded: low cytotoxicity | low growth inhibition; also recorded: low cytotoxicity | low growth inhibition; also recorded: low cytotoxicity | –
CC1(C)CCc2c(c3ccccc3c3nc(-c4ccc(O)cc4)[nH]c23)O1 [IM4, 4,5-dihydro-6,6-dimethyl-6H-2-(4-hidroxyphenyl)-pyran[b-4,3]naphth[1,2-d]imidazole] | – | – | 1.36 × 10^6 au | 393 | 23 | >15.76 | 8.71 | >41.70 | 31.9 | >11.38 | > 363 | 49 | – | 1.48 10^4 M^−1cm^−1 | 344 | 14800 | – | – | – | –
CN(C)c1ccc(-c2nc3c([nH]2)c2c(c4ccccc43)OC(C)(C)CC2)cc1 [IM5, 4,5-dihydro-6,6-dimethyl-6H-2-(4-dimethylaminophenyl)-pyran[b-4,3]naphth[1,2-d]imidazole] | – | – | 7.04 × 10^5 au | 422 | 44.1 | 1.20 | 12.3 | 4.28 | 21.1 | 2.51 | 52.8 | 54 | 182 to 184 | 2.71 10^4 M^−1cm^−1 | 368 | 27100 | – | – | – | –
CC1(C)CCc2c(c3ccccc3c3nc(-c4ccc([N+](=O)[O-])cc4)[nH]c23)O1 [IM6, 4,5-dihydro-6,6-dimethyl-6H-2-(4-nitrophenyl)-pyran[b-4,3]naphth[1,2-d]imidazole] | – | – | – | 391 | 21.1 | 7.18 | 13.7 | 11.09 | 22.3 | 6.81 | 152 | – | 259 to 260 | 1.85 10^4 M^−1cm^−1 | 411 | – | – | – | – | –
CC1(C)CCc2c(c3ccccc3c3nc(-c4ccccc4[N+](=O)[O-])[nH]c23)O1 [IM7, 4,5-dihydro-6,6-dimethyl-6H-2-(2-nitrophenyl)-pyran[b-4,3]naphth[1,2-d]imidazole] | – | – | – | 385 | 35.1 | – | 14.9 | – | > 67 | – | – | 48 | 139 to 141 | 1.35 10^4 M^−1cm^−1 | 337 | – | – | – | – | –
CC1(C)CCC2=C(O1)c1ccccc1C(=O)C2=O [β-lapachone, β-Lapachone] | – | – | – | – | – | – | – | – | – | – | – | – | – | – | – | – | – | – | – | low
